{"source": "patent US6784186B1", "about": "(priority 1998, dated 2004)", "key": {"[1]": {"tested_on": "μ opiate receptor", "design": "species or system guinea-pig"}, "[2]": {"test": "Formalin-induced hind paw licking test (mouse analgesia model)", "assay_type": "in vivo, ICR derived male mice", "conditions": "for % Reduction in Hind Paw Licking time: given one hour before subplantar formalin, licking time recorded during the following 20 to 30 minute period"}, "[3]": {"test": "PQ-induced writhing test (mouse analgesia model)", "assay_type": "in vivo, ICR derived male mice", "conditions": "for % Reduction in Writhes: given 30 minutes before PQ (2 mg/kg), writhes 5 to 10 minutes after PQ"}, "[4]": {"conditions": "in vivo"}}, "note": "“And” between values parts separate entries of the source, which are not always exact repeats. Equal entries are not always repeated. Where two headings read alike, the source gives them in different places.", "data": [{"smiles": "N=C(N)N1CC[C@]23c4c5ccc(O)c4O[C@H]2[C@@H](O)C=CC3[C@H]1C5", "note": "(stereo partly drawn) [KRS-2-19, (5α,6α)-7,8-didehydro-4,5-epoxy-17-N-(2-carboxamidino)-morphinan-3,6, -diol]", "values": [{"measurement": "agonist character (full / partial)", "setting": "[1]", "value": "only partial morphine agonist activity"}]}, {"smiles": "COc1ccc2c3c1O[C@H]1[C@@H](O)C=CC4[C@@H](C2)N(CCC(=N)N)CC[C@@]341", "note": "(stereo partly drawn) [KRS-2-63, 5α,6α-7,8-didehydro-4,5-epoxy-3-methoxy-17-N-[(2-aminoiminomethyl)ethyl]morphinan]", "values": [{"measurement": "agonist character (full / partial)", "setting": "[1]", "value": "partial agonist activity"}]}, {"smiles": "N=C(N)CCN1CC[C@]23c4c5ccc(O)c4O[C@H]2[C@@H](O)C=CC3[C@H]1C5", "note": "(stereo partly drawn) [KRS-41, (5α,6α)-7,8-didehydro-4,5-epoxy-17-N-[(2-aminoiminomethyl)ethyl]-morphinan-3,6-diol]", "values": [{"measurement": "% Reduction in Hind Paw Licking time", "setting": "[2]; 10 mg/kg", "value": 12, "unit": "%"}, {"measurement": "% Reduction in Hind Paw Licking time", "setting": "[2]; 30 mg/kg", "value": 75, "unit": "%"}, {"measurement": "analgesic activity at multiple of the morphine concentration", "setting": "[2]; formalin test, relative to morphine", "value": "3 times the morphine concentration"}, {"measurement": "% Reduction in Writhes", "setting": "[3]; 3 mg/kg", "value": 18, "unit": "%"}, {"measurement": "% Reduction in Writhes", "setting": "[3]; 15 mg/kg", "value": 93, "unit": "%"}, {"measurement": "analgesic activity at multiple of the morphine concentration", "setting": "[3]; PQ writhing test, relative to morphine", "value": "5 times the morphine concentration"}, {"measurement": "opiate activity in stimulated ileum compared to standard", "setting": "[1]", "value": "excellent activity compared to morphine"}, {"measurement": "Corneal reflex", "setting": "[4]; 30 mg/kg", "value": "4.9 ± 0.1"}, {"measurement": "Grip strength", "setting": "[4]; 30 mg/kg", "value": "5.1 ± 0.4"}, {"measurement": "Positional Passivity", "setting": "[4]; 30 mg/kg", "value": "4.7 ± 0.3"}, {"measurement": "Respiratory rate", "setting": "[4]; 30 mg/kg", "value": "5.1 ± 0.2"}, {"measurement": "Tail elevation", "setting": "[4]; 30 mg/kg", "value": "2.0 ± 0.4"}]}, {"smiles": "CN1CC[C@]23c4c5ccc(O)c4O[C@H]2[C@@H](O)C=C[C@H]3[C@H]1C5.Cl", "note": "[Morphine HCl, reference compound]", "values": [{"measurement": "% Reduction in Hind Paw Licking time", "setting": "[2]; 10 mg/kg", "value": 100, "unit": "%"}, {"measurement": "% Reduction in Writhes", "setting": "[3]; 3 mg/kg, HCl", "value": "87% and 73%"}]}, {"smiles": "CN1CC[C@]23c4c5ccc(O)c4O[C@H]2[C@@H](O)C=C[C@H]3[C@H]1C5", "note": "[Morphine, reference compound]", "values": [{"measurement": "Corneal reflex", "setting": "[4]; 10 mg/kg", "value": "2.9 ± 0.2"}, {"measurement": "Grip strength", "setting": "[4]; 10 mg/kg", "value": "3.7 ± 0.3"}, {"measurement": "Positional Passivity", "setting": "[4]; 10 mg/kg", "value": "8.7 ± 0.4"}, {"measurement": "Respiratory rate", "setting": "[4]; 10 mg/kg", "value": "4.1 ± 0.3"}, {"measurement": "Tail elevation", "setting": "[4]; 10 mg/kg", "value": "7.0 ± 0.7"}]}]}
